Source: patent publication US7794929B2, “Genomic screen for epigenetically silenced genes associated with cancer” (The Johns Hopkins University School of Medicine, priority 2002, dated 2010)

How the values were obtained:
[1] = test system: CRC cell lines; test: RT-PCR expression analysis of methylation silenced genes in CRC cell lines after DAC treatment; type: cell-based, human
Procedure: Briefly, the treatment consisted of DAC (200 nM) for 48 hr, with drug and medium replaced at the 24 hr time point after beginning of treatment, followed by addition of TSA to a final concentration of 300 nM (from a 1.5 mM ethanol dissolved stock) and incubation for an additional 24 hr. Cells also were treated with DAC alone or TSA alone, or mock treated, using the same volumes of PBS and/or ethanol, and/or same amount of the drugs. Some colorectal cancer (CRC) cell lines also were treated for RT-PCR analysis to assess more robust levels of gene expression; treatment was with 5 μM DAC for 72 hr, with drug and medium being replaced every 24 hr. Total RNA was extracted using the TRIZOL Reagent (Gibco/BRL), and used for microarray analysis, cDNA subtraction and RT-PCR. DNase I (Ambion) treated total RNA (2 μg) was reverse transcribed for single stranded cDNA using oligo (dT)12-18 primer with [sequence] II reverse transcriptase (Gibco/BRL). PCR reactions were performed in a volume of 50 μl containing 1×PCR buffer (Gibco/BRL), 1.5 mM of MgCl2, 0.3 mM of dNTP, 0.25 μM of each primer and 2 U of Taq polymerase (Gibco/BRL). One hundred ng of cDNA was used for PCR amplification, and all of the genes were amplified with multiple cycle numbers (20 to 35 cycles) to determine appropriate conditions to obtain semi-quantitative differences in their expression levels. GAPDH PCR (25 and 28 cycles) was performed to ensure cDNA quality and loading accuracy. […] For RT-PCR, SFRP2 sense and antisense primers were designed for exons 2 and 3, respectively; SFRP4 sense and antisense primers were designed for exons 2 and 5, respectively; and SFRP5 sense and antisense primers were designed for exons 2 and 3, respectively.

[2] = test system: RKO cells; test: Subtraction microarray and semi-quantitative RT-PCR of gene expression after DAC and/or TSA treatment; type: cell-based, human; settings: for expression of Group 2 genes (n=23) / expression of Group 1 genes (n=51): RKO cells, semi-quantitative RT-PCR; for expression of Group 2 genes (n=23): DAC alone or TSA alone; for expression of Group 1 genes (n=51): low dose DAC alone, TSA alone or combined
Procedure: RKO cells were treated with 5-aza-2′-deoxycytidine (DAC; Sigma) and/or trichostatin A (TSA; Wako) as described (Cameron et al., supra, 1999). Briefly, the treatment consisted of DAC (200 nM) for 48 hr, with drug and medium replaced at the 24 hr time point after beginning of treatment, followed by addition of TSA to a final concentration of 300 nM (from a 1.5 mM ethanol dissolved stock) and incubation for an additional 24 hr. Cells also were treated with DAC alone or TSA alone, or mock treated, using the same volumes of PBS and/or ethanol, and/or same amount of the drugs. Some colorectal cancer (CRC) cell lines also were treated for RT-PCR analysis to assess more robust levels of gene expression; treatment was with 5 μM DAC for 72 hr, with drug and medium being replaced every 24 hr. Total RNA was extracted using the TRIZOL Reagent (Gibco/BRL), and used for microarray analysis, cDNA subtraction and RT-PCR. Prior to cDNA subtraction, poly A RNA was isolated from total RNA using the MESSAGE MAKER Reagent Assembly kit (Gibco/BRL). cDNA subtraction was performed with the combination treated RKO cell line as the tester, and mock treated cells as the driver by using the PCR-Select™ cDNA subtraction kit (Clontech). Synthesized cDNA was digested with Rsa I, and tester cDNA was ligated to adaptors included in the kit. After hybridization, PCR amplification of the subtracted cDNA was performed using the ADVANTAGE cDNA PCR kit (Clontech). Microarray analysis was performed using the Mammalian GeneFilters Microarrays™ system (Research Genetics). Filters were generated for approximately 5,000 of the genes analyzed in the Johns Hopkins Comprehensive microarray core, and filters for an additional 5,000 genes were purchased (Human GeneFilters Microarrays™ Release II; Research Genetics). A total of 10,814 genes and ESTs were analyzed. Hybridization of the filters was performed according to manufacturer's recommendation. Briefly, 5 μg of total RNA was reverse transcribed and labeled using oligo (dT)12-18 primer and ^32dCTP with SUPERSCRIPT II reverse transcriptase (Gibco/BRL). Hybridization of the filters was allowed to proceed for 12 to 18 hr. Data was analyzed using the PSCAN program (National Institutes of Health). For subtraction-microarray analysis, the 2nd PCR product from cDNA subtraction was labeled with ^33P using the MULTIPRIME DNA labeling system (Amersham). Hybridization and data analysis were performed as described above. Microarray analysis was repeated independently at least three times for each condition, and results for probing the arrays with cDNA for total RNA from mock treated cells were compared to those for hybridizations with subtraction PCR products. DNase I (Ambion) treated total RNA (2 μg) was reverse transcribed for single stranded cDNA using oligo (dT)12-18 primer with SUPERSCRIPT II reverse transcriptase (Gibco/BRL). PCR reactions were performed in a volume of 50 μl containing 1×PCR buffer (Gibco/BRL), 1.5 mM of MgCl2, 0.3 mM of dNTP, 0.25 μM of each primer and 2 U of Taq polymerase (Gibco/BRL). One hundred ng of cDNA was used for PCR amplification, and all of the genes were amplified with multiple cycle numbers (20 to 35 cycles) to determine appropriate conditions to obtain semi-quantitative differences in their expression levels. GAPDH PCR (25 and 28 cycles) was performed to ensure cDNA quality and loading accuracy. Amplification primer pairs were as shown in Table 4 (SEQ ID NOS: 149 to 296.

[3] = colorectal cancer cells and/or gastric cancer cells

Row | SMILES | expression of FOLH1 and PCDH8 (silent genes) ([1]; CRC cell lines) | basal expression of the hypermethylated SFRP genes (the three other than SFRP1) ([1]; CRC cell lines, DAC treatment) | KIAA0786 expression (not basally expressed despite a lack of methylation) ([1]; SW480 cells) | expression of Group 1a genes lacking basal expression in the methylated cell lines ([1]; series of 8 CRC cell lines, incubation with DAC) | expression of Group 2 genes (n=23) [2] | expression of Group 1 genes (n=51) [2] | basal level of expression of HOXA1, GRO3 and DLX7 [2, 3] | expression of POR1, MBNL, TRADD, PDIP, RAD23B, RPL13, GNAI2, PPP1R21A, FPGT and TRIM32 [2, 3] | expression of PTGS2, CDKN2A, TIMP3, S100A10, SFRP1, CXX1, SEZZ6L, KIAA0786, TIMP2, PCDH8, FOLH1 and SNRPN (no detectable basal expression) [2, 3]
1 | Nc1ncn([C@H]2C[C@H](O)[C@@H](CO)O2)c(=O)n1 [DAC, 5-aza-2′-deoxycytidine] | re-expression | restored | reactivated | restored | variable initial expression or response | minimal increase in expression | increased | vary among genes | re-expressed
2 | CC(/C=C/C(=O)NO)=C\[C@@H](C)C(=O)c1ccc(N(C)C)cc1 [TSA, trichostatin A] |  |  |  |  | up-regulation | no change in expression | not | up-regulated | 
